Laboratory results: US20140335050A1, “METHODS, COMPOSITIONS, AND KITS FOR THE TREATMENT OF CANCER” (The General Hospital Corporation, priority 2011, published 2014)

Experiments:
Format in all cases: cell-based, human
[1] = tested on: Melan-A/MART-1 promoter EGFP reporter cell line; assay: Melan-A/MART-1 promoter-driven EGFP reporter cell line, secondary screen of hits (FIG. 6); settings: over a dose range (FIG. 6)
Text: FIG. 6 is a series of graphs showing EGFP detection of in cells treated with the indicated hits showing ability to upregulate a cell line containing a Melan-A/MART-1 promoter-driven EGFP reporter. Note that the x-axes (drug concentrations) and y-axes (EGFP fluorescent measurement) cover different ranges to best indicate the activities of individual compounds. Data from a single determination, representative of at least three confirmatory experiments, is shown.
The EGFP reporter driven by the Melan-A/MART-1 promoter represents one such orthogonal assay because it evaluates directly the effect of the compounds on Melan-A/MART-1 promoter activity independent of Melan-A/MART-1 protein expression. Compounds passing the other secondary screens, but failing this one, may affect antigen presentation by other mechanisms such as increasing the efficiency of antigen processing, enhancing MHC Class I levels, or by stabilizing the antigen/MHC complex.
As for the primary screen, 17-AAG and aphidicolin, had the largest impact on EGFP stimulation, inducing 3-fold and 5-fold increases respectively. […]
(§1) Cells were fixed with 1% formaldehyde, permeabilized with 0.1% saponin, stained with monoclonal antibodies to melanocyte antigens. […] The level of EGFP was determined by flow cytometry of unfixed cells that were washed and resuspended in 1×PBS.

[2] = tested on: MU89 melanoma cells; assay: Tumor cell/T cell co-culture IL-2 ELISA (Melan-A/MART-1 specific TCR Jurkat line J-TCR-M1 as responder); settings: for Fold increase (IL-2 relative to untreated controls), hits from pilot screen: about 10 μM, 72 hours treatment, then 24 hours co-culture
Text: The assay relies on the use of an antigen-specific responder T cell line. […] The chosen TCR reacts specifically to a Melan-A/MART-1 decapeptide (26[…]35) presented by HLA-A2, with appropriate triggering of T cell activation. We then used a lentiviral vector system for transduction of this specific TCR into the J.RT3-T3.5 T cell line, a Jurkat cell derivative which fails to express endogenous surface TCR through a mutation in its beta chain.
We evaluated several candidate melanoma cell lines for the ability to stimulate the J-TCR-M1 cell line. Levels of Melan-A/MART-1 (determined by intracellular staining and flow cytometry) and corresponding levels of induced IL-2 (determined by coculture with J-TCR-M1 and IL-2 ELISA) were tested for different melanoma cell lines.
The 480 compounds were tested in six parallel 96 well plates. The first two columns (16 wells) of each plate were used for standards (8 wells), untreated controls (4 wells), and positive controls (4 wells). The other ten columns (80 wells) were used for testing compounds in separate wells. A100 μl aliquot containing 5×10^4 MU89 cells was added to wells that contained 0.1 μl of each test drug diluted in 50 μl of RPMI media. The plates were incubated with drug for 72 hours at 37° C. in a humidified incubator with 5% CO2. After 72 hours, each well received 2.5×10^4J-TCR-M1 cells in 50 μl medium, and then incubated a further 24 hours. At the conclusion of the 24 hour co-culture period, each plate was centrifuged to pellet the cells and 100 μl supernatant fluid was collected from each well and plated in a parallel 96 well flat bottom well for IL-2 ELISA assay.
Melanoma cells were treated with hits from the primary screen for three days prior to counting and plating for the coculture assay (cells were washed and resuspended in fresh medium that no longer contained the treatment agents during the co-culture). A100 μl volume of 5×10^5 cells/ml tumor cells were mixed with 50 μl of […] T cells in a 96-well V-bottom plate and incubated overnight (16-24 hours). Plates were centrifuged to pellet the cells and 100 μl of supernatant fluid was removed from each well for cytokine assay. To assess antigen-specific T cell responses, a final concentration of 3.33 μg/ml Melan-A/MART-1 peptide (26[…]35 (A27L from wild type)) was added to the co-culture.
The protocol for evaluation of the cytokine IL-2 was performed using a the BD OptEAI kit, human IL-2 ELISA set from BD Biosciences (San Diego, Calif.) following the manufacturer's recommendations. The absorbance 450 nm was read in a BioRad 3550 plate reader. A standard curve using known concentrations of IL-2 (from 500 to 8 pg/ml) was included in each ELISA plate. IL-2 levels for experimental samples (pg/ml) were calculated from the standard curve.
100 μl of 5×10^5 tumor cells/ml were mixed with 50 μl of T cells (at 5×10^5 cells/ml) in a 96-well V-bottom plate and incubated overnight (16-24 hours). Plates were centrifuged to pellet the cells and 120 μl of supernatant fluid was removed from each well for cytokine assay. To assess antigen-specific T cell responses, 3.33 μg/ml Melan-A/MART-1 peptide was added to the co-culture.
The protocols for evaluation of either IL-2 or IFN-gamma were similar, following the manufacturer's recommendations. A standard curve using known concentrations of each cytokine was included in each ELISA experiment. ELISA plates were coated with capture antibody and then washed with 1×PBS 0.5% Tween-20. Wells were blocked with 1×PBS 1% FBS for 1 hour and rewashed.

[3] = tested on: MU89 MART::EGFP cell line; assay: Melan-A/MART-1 promoter-driven EGFP reporter, kinetics by flow cytometry; settings: MU89 MART::EGFP (FIG. 11)
Procedure: FIG. 11 is a set of four graphs showing the kinetics of Melan-A/MART-1 increase. […] The same number of cells per well were plated in each well of a 24 well plate and drug was added on day zero. Each day cells were collected and assayed for that time point. Control untreated cells are shown for comparison. The data are from one representative experiment.
A kinetic analysis was performed to determine the effect of Hsp90 inhibition on Melan-A/MART-1 promoter activity over time. […] Reporter activity increases steadily for the first 72 hours of Hsp90 inhibition, and then plateaus. The need for continued presence of Hsp90 inhibitors in order for them to be effective (i.e. whether the drug can be removed after short exposure, or whether it must it be continually present) was assessed. […] To achieve full signal enhancement, it is desirable to retain the drug for at least 48 hours, after which the effect remains constant or slightly decreases.
The generation and application of EGFP reporter cells has been previously described. Briefly, a 1200 base pair human genomic DNA segment encompassing the Melan-A/MART-1 promoter was used to generate a construct driving expression of the EGFP reporter gene. Stable transfectants with this construct were generated in the low-antigen cell line A375 and the high-antigen line MM96L+ and MU89. The EGFP expression response patterns of these cells to IFN-beta and MAP kinase inhibitors recapitulates the antigen up-regulation of endogenous Melan-A/MART-1 induced by these agents.
Intracellular staining and flow cytometric analyses of cytoplasmic Melan-A/MART-1, and gp100 expression were performed as described previously. Cells were fixed with 1% formaldehyde, permeabilized with 0.1% saponin, stained with monoclonal antibodies to melanocyte antigens. Antibodies were obtained with specificity for: Melan-A/MART-1 from Vector Labs (Burlingame, Calif.); gp100/HMB45 from DakoCytomation (Carpinteria, Calif.) and then visualized with goat anti-mouse FITC-conjugated secondary antibody from Invitrogen (Frederick, Md.). The level of EGFP was determined by flow cytometry of unfixed cells washed and resuspended in 1×PBS. Surface staining of MHC Class I was carried out using the antibody W6/32 on cells harvested with Cell Stripper from MediaTech Inc. (Manassas, Va.) and carried out on ice.

[4] = tested on: melanomas and gliomas; assay: Intracellular staining for Melan-A/MART-1 and gp100, melanomas and gliomas exposed to hits (Table 10); settings: in most cell lines; three days (Table 10)
Procedure: FIG. 7 is a series of graphs showing intracellular staining and flow histograms used to generate data for Table 10. All cells were stained with an antibody to gp100. Thin line represents untreated cells, bold line represents cells treated for three days with 17-AAG (1 μg/ml). Numbers represent geometric mean of flow histograms.
A further orthogonal secondary screen is the measurement of Melan-A/MART-1 and gp100 in additional melanoma cell lines and gliomas in response to the primary hit candidates. […] If the compounds of interest increase antigen levels in multiple melanoma cell lines and two gliomas, the effects of the compounds are clearly not limited to a single melanoma cell type.
As for the primary screen, 17-AAG and aphidicolin, had the largest impact on EGFP stimulation, inducing 3-fold and 5-fold increases respectively. Four additional compounds: damnacanthal, flunarizine, OBAA, and dantrolene stimulated EGFP more than 2-fold. We then tested the ability of the hit compounds to induce antigen increases in a more diverse set of tumors including melanomas and gliomas. […]
as §1

[5] = tested on: J-TCR-M1 T cells; assay: Secondary screen for nonspecific T cell activation (T cells alone, IL-2); settings: 2.5×10^4 T cells alone, no tumor; PMA 2 μg/ml
Procedure: FIG. 4 is a graph showing IL-2 expression from the secondary screen for nonspecific T cell activation. Bars indicate the incubation of 2.5×10^4 T cells alone with the indicated compounds. The concentration of compounds used in this assay are; 17-AAG 10 μg/ml, OBAA 25 μg/ml, aphidicolin 4 μg/ml, flunarizine 8 μg/ml, dantrolene 2 μg/ml, glyburide 4 μg/ml, and PMA 2 μg/ml.
Secondary screens were carried out on the 8 primary hits, to further test performance robustness, specificity, and certain functional properties. Initially, for any previously-described compound, extensive literature searches must be performed to look for all relevant known bioactivities, especially towards melanocytic cells or T cells. […] Testing for non-specific T cell stimulation will identify false positives, and compounds failing this test will not be further evaluated in any other secondary screens. […]
The protocol for evaluation of the cytokine IL-2 was performed using a the BD OptEAI kit, human IL-2 ELISA set from BD Biosciences (San Diego, Calif.) following the manufacturer's recommendations. The absorbance 450 nm was read in a BioRad 3550 plate reader. […] IL-2 levels for experimental samples (pg/ml) were calculated from the standard curve.

Row | Compound | EGFP stimulation (Melan-A/MART-1 promoter reporter) [1] | Outcome in the primary co-culture IL-2 screen (hit or not) ([2]; ICCB Known Bioactives Library, 10 μM) | Fold increase (IL-2 relative to untreated controls), hits from pilot screen [2] | IL-2 stimulation in repeat of the tumor T cell co-culture IL-2 ELISA ([2]; hits re-tested over a wider dose range (FIG. 5)) | Time at which the fluorescent reporter signal is significantly enhanced (as early as) [3] | Protein increase (Melan-A/MART-1, gp100 intracellular staining) [4] | IL-2 expression of T cells incubated alone with compound (nonspecific T cell activation) [5]
1 | C=CCNC1=C2C[C@@H](C)C[C@H](OC)[C@H](O)[C@@H](C)/C=C(\C)[C@H](OC(N)=O)[C@@H](OC)/C=C\C=C(/C)C(=O)NC(=CC1=O)C2=O [17-AAG, 17-allylaminogeldanamycin] | 3 fold | identified as a hit | 7.7 fold | about 7 fold | 2 days | inducing high levels of protein increases at low concentrations | –
2 | CCCCCCCCCCCCCC(=O)O[C@@H]1[C@@H](C)[C@@]2(O)[C@@H](C=C(CO)C[C@]3(O)C(=O)C(C)=C[C@@H]23)[C@@H]2C(C)(C)[C@]12OC(C)=O [PMA, phorbol-12-myristate-13 acetate] | – | – | 1.9 fold | – | – | – | caused T cells stimulation in the absence of tumor
